The text below walks through data of ChEMBL document CHEMBL1140659, “Respiratory syncytial virus fusion inhibitors. Part 5: Optimization of benzimidazole substitution patterns towards derivatives with improved activity” (Bioorg Med Chem Lett, 2007).

Broadly, the EC50 is the concentration at which the effect is half-maximal. The low end stands for higher potency in that assay, the high end for lower potency in that assay. For orientation: CC50 means the concentration giving 50% cytotoxicity. The low end stands for greater toxicity to the cells, the high end for lower toxicity to the cells.

In data set [1] the test system is Respiratory syncytial virus. Nature of the data set: Antiviral activity against RSV long A with F1 protein K394R mutation in HEp2 cells. Type of data set: functional, organism-based.
Data set [2] can be described thus: Cytotoxicity against human HEp2 cells. The class given is cell-based, HEp-2.
The nature of data set [3]: Therapeutic index, ratio of CC50 for HEp2 to EC50 for RSV long A. Conditions: human, HEp2 cells; read-out: Ratio CC50/EC50.

Take `CC(C)CCn1c(Cn2c(=O)n(C(C)C)c3ccccc32)nc2c(CCN)cccc21`: the EC50 in data set [1] was found to be 0.23 µM. For the same compound, the CC50 in data set [2] was 3.92 µM. The selectivity ratio in data set [3] was 17.
For `CC(C)CCn1c(Cn2c(=O)n(C(C)C)c3ccccc32)nc2c(CCCN)cccc21`, in that order: 213 µM, 2.34 µM and 0.011.
As for `CC(=O)c1ccc2c(c1)nc(Cn1c(=O)n(C)c3ccccc31)n2CCC(C)C`, the midpoint of the response in data set [1], the EC50, lay at 0.193 µM. In data set [2], half-maximal cytotoxicity (CC50) was put at 5.2 µM. Besides, in data set [3], the selectivity ratio came out at 39.8.
On the same counts, the results for `COCc1cccc2c1nc(Cn1c(=O)n(C(C)C)c3ccccc31)n2CCC(C)C` are 7.5 µM, 26.7 µM and 3.56.
`COC(=O)c1cccc2c1nc(Cn1c(=O)n(C(C)C)c3ccccc31)n2CCC(C)C` registered an EC50 in data set [1] of 230 µM. In data set [2], this compound displayed a CC50 of 49.2 µM. Moreover, the selectivity ratio in data set [3] worked out at 0.213.
For `CC(C)CCn1c(Cn2c(=O)n(C(C)C)c3ccccc32)nc2c(CC#N)cccc21`, in that order: 241 µM, 116 µM and 0.482.
Regarding `CC(C)CCn1c(Cn2c(=O)n(C(C)C)c3ccccc32)nc2cc(Br)ccc21`, the EC50 in data set [1] was determined as 0.018 µM. This compound also returned a half-maximal cytotoxic concentration (CC50) in data set [2] of 18.1 µM. In data set [3], the selectivity ratio amounted to 1010.
For `CC(C)CCn1c(Cn2c(=O)n(C(C)C)c3ccccc32)nc2cc(C#N)ccc21`, in that order: 0.476 µM, 7.93 µM and 16.6.
Take `CC(C)CCn1c(Cn2c(=O)n(CC(=O)OC(C)(C)C)c3ccccc32)nc2cc(C#N)ccc21`: a half-maximal effect in data set [1] (EC50) was put at 2.55 µM. Besides, in data set [2], half-maximal cytotoxicity (CC50) was put at 32.2 µM. In addition, the selectivity ratio in data set [3] stood at 12.6.
For `CC(C)CCn1c(Cn2c(=O)n(C(C)C)c3ccccc32)nc2cc(CC#N)ccc21`, in that order: 0.117 µM, 13.3 µM and 114.
The compound `C=C(C)n1c(=O)n(Cc2nc3cc(C#N)ccc3n2CCC(C)C)c2ccccc21` came in with an EC50 in data set [1] of 0.057 µM. In data set [2], the CC50 was 1.48 µM. For the same compound, the selectivity ratio in data set [3] came to 26.
On the same counts, the results for `C=C(C)n1c(=O)n(Cc2nc3cc(C(C)=O)ccc3n2CCC(C)C)c2ccccc21` are 0.179 µM, 0.74 µM and 4.1.
On the same counts, the results for `C=Cc1ccc2c(c1)nc(Cn1c(=O)n(C(C)C)c3ccccc31)n2CCC(C)C` are 0.63 µM, 6.52 µM and 10.3.
On the same counts, the results for `CC(C)CCn1c(Cn2c(=O)n(C(C)C)c3ccccc32)nc2c(CO)cccc21` are 0.82 µM, 22 µM and 26.8.
With `CC(C)CCn1c(Cn2c(=O)n(C(C)C)c3ccccc32)nc2c(CCC#N)cccc21`, the EC50 in data set [1] was found to be 234 µM. For the same compound, in data set [2], the 50% cytotoxic concentration (CC50) is 2.24 µM. In addition, the selectivity ratio in data set [3] worked out at 0.096.
For `CC(C)CCn1c(Cn2c(=O)n(C(C)C)c3ccccc32)nc2c(CN)cccc21`, in that order: 0.715 µM, 7 µM and 9.78.
